In publication PMC8175350, “Drug repurposing screens identify chemical entities for the development of COVID-19 interventions” (Nature Communications, 2021):
Read-outs that look alike come from different tables or passages of the source.

Assays:
SARS-CoV-2 [1] = assay: microbe, parasite or virus in culture; type: cell-based; conditions: for Emax: Severe acute respiratory syndrome coronavirus 2, HeLa-ACE2, 10 h, read-out: HeLa-ACE2 TOA CoV-2 Sinf Average; for EC50: read-out: HeLa-ACE2 TOA CoV-2 EC50 GeoMean
in vitro = conditions: human, Calu-3 uninfected cytotoxicity CC50 GeoMean
HEK293T [2] = conditions: human
SARS-CoV-2 [3] = assay: microbe, parasite or virus in culture; type: cell-based; conditions: for Emax: Severe acute respiratory syndrome coronavirus 2, HeLa-ACE2, 24 h, read-out: HeLa-ACE2 CoV-2 Sinf Average; for EC50: read-out: HeLa-ACE2 CoV-2 EC50 GeoMean
Calu-3 cells [4] = assay: cells; conditions: Homo sapiens; for EC50: Calu-3, read-out: Calu-3 cell count EC50 GeoMean; for Emax: Calu-3, 48 h, read-out: Calu-3 cell count Sinf Average
HeLa-ACE2 cells [5] = assay: Total cell count in the HeLa-ACE2 TOA (time of addition) assay; type: cell-based, human; conditions: Homo sapiens, HeLa-ACE2; read-out: HeLa-ACE2 TOA cell count EC50 GeoMean
SARS-CoV-2 [6] = assay: microbe, parasite or virus in culture; type: cell-based; conditions: for Emax: Severe acute respiratory syndrome coronavirus 2, Calu-3, 48 h, read-out: Calu-3 CoV-2 Sinf Average; for EC50: read-out: Calu-3 CoV-2 EC50 GeoMean
Calu-3 cells [7] = conditions: for Calu-3 uninfected cytotoxicity Sinf Average: human
HepG2 [8] = conditions: human
HeLa-ACE2 cells [9] = assay: cells; conditions: Homo sapiens; for Emax: HeLa-ACE2, 24 h, read-out: HeLa-ACE2 cell count Sinf Average; for EC50: HeLa-ACE2, read-out: HeLa-ACE2 cell count EC50 GeoMean
[10] = Uninfected HeLa-ACE2 24 h live/dead cytotoxicity counter screen; type: cell-based, human; conditions: human, uninfected HeLa-ACE2 cells; read-out: HeLa-ACE2 uninfected cytotoxicity CC50 GeoMean
HeLa-ACE2 cells [11] = assay: as above; type: cell-based, human
HeLa-ACE2 cells [12] = assay: Total cell count in the HeLa-ACE2 TOA assay; type: cell-based; conditions: Homo sapiens; for Emax: HeLa-ACE2, 10 h, curve plateau at infinite concentration, read-out: HeLa-ACE2 TOA cell count Sinf Average; for EC50: HeLa-ACE2, read-out: HeLa-ACE2 TOA cell count EC50 GeoMean
Description: Supplement 41467_2021_23328_MOESM3_ESM.xlsx, sheet "Table S1" | column: HeLa-ACE2 TOA cell count

[13] = HEK293T 72 h CellTiter-Glo cytotoxicity; conditions: human, HEK293T cells
HEK293T [14] = assay: HEK293T 72 h CellTiter-Glo cytotoxicity; conditions: 72 h
Calu-3 cells [15] = assay: Uninfected Calu-3 48 h Cell-Titer Glo cytotoxicity counter screen; conditions: curve plateau at infinite concentration
[16] = as above; conditions: human, uninfected Calu-3 cells
[17] = HepG2 72 h CellTiter-Glo cytotoxicity; conditions: human, HepG2 cells
HepG2 [18] = assay: HepG2 72 h CellTiter-Glo cytotoxicity; conditions: 72 h
SARS-CoV-2 [19] = type: cell-based; conditions: combination with remdesivir, synergy score δ
[20] = Severe acute respiratory syndrome coronavirus 2, HeLa-ACE2
[21] = Severe acute respiratory syndrome coronavirus 2, HeLa-ACE2, detail column
[22] = Severe acute respiratory syndrome coronavirus 2, Calu-3, detail column
[23] = curve plateau at infinite concentration
[24] = Calu-3 uninfected cytotoxicity CC50 GeoMean
[25] = Severe acute respiratory syndrome coronavirus 2, Calu-3

SMILES	TOA:HeLa-ACE2 EC50 Ratio (SARS-CoV-2 [1])	Emax (SARS-CoV-2 [1]) [%]	EC50 (SARS-CoV-2 [1]; [20]) [µM]	EC50 (SARS-CoV-2 [3]; [21]) [µM]	EC50 (Calu-3 cells [4]) [µM]	EC50 (SARS-CoV-2 [6]; [22]) [µM]	Emax (HeLa-ACE2 cells [9]) [%]	EC50 (HeLa-ACE2 cells [9]) [µM]	CC50 at 24 h [10] [µM]	Emax (SARS-CoV-2 [1]; [23]) [%]	EC50 (HeLa-ACE2 cells [12]) [µM]	Emax (SARS-CoV-2 [3]; [23]) [%]	Emax (Calu-3 cells [4]) [%]	CC50 at 72 h [13] [µM]	HEK293T 72-hour cytotoxicty Sinf Average (HEK293T [14]) [%]	Calu-3 uninfected cytotoxicity Sinf Average (Calu-3 cells [15]) [%]	Emax (SARS-CoV-2 [6]; [23]) [%]	CC50 at 72 h [17] [µM]	HepG2 72-hour cytotoxicity Sinf Average (HepG2 [18]) [%]	HeLa-ACE2 uninfected cytotoxicity Sinf Average (HeLa-ACE2 cells [11]; [23]) [%]	further results
CCCCN1CC[C@H](c2ccc(N(C)C)cc2)[C@@H](COc2ccc(C(F)(F)F)cc2)C1 [NNC 090026]	1.737	100	4.77	2.75	> 9.98	> 8.31	96	> 8.97	> 15.4	–	–	–	–	–	–	–	–	–	–	–	CC50 at 48 h (in vitro): > 23.5 µM; HEK293T 72-hour cytotoxicty Sinf Average (HEK293T [2]; 72 h): -100%; Emax (SARS-CoV-2 [3]): 94%; HeLa-ACE2 SI (SARS-CoV-2 [3]; selectivity index, uninfected HeLa-ACE2 CC50 / SARS-CoV-2 EC50): > 5.59; EC50 (HeLa-ACE2 cells [5]): > 9.61 µM; Emax (SARS-CoV-2 [6]): 100%; Calu-3 SI (SARS-CoV-2 [6]; selectivity index, uninfected Calu-3 CC50 / SARS-CoV-2 EC50): > 2.83; uninfected Calu-3 CC50 (Calu-3 cells [7]): > 23.525 ×÷ 1.612 (n=4) μM; Calu-3 uninfected cytotoxicity Sinf Average (Calu-3 cells [7]; 48 h): -100%; HepG2 72-hour cytotoxicity Sinf Average (HepG2 [8]; 72 h): -100%; HeLa-ACE2 uninfected cytotoxicity Sinf Average (HeLa-ACE2 cells [11]; human, uninfected HeLa-ACE2 cells, 24 h): -100%
COc1cc2c(Nc3ccc(Cl)c(Cl)c3F)ncnc2cc1OC[C@@H]1C[C@@H]2CN(C)C[C@@H]2C1 [Tesevatinib, XL647, Kadmon Corporation]	–	–	> 7.61	2.44	> 9.97	3.32	100	> 8.16	> 20.6	100	> 9.59	101	-100	2.67	-102	-105	100	3.15	-103	-100	Emax (HeLa-ACE2 cells [12]): -100%; CC50 at 48 h [16, 24]: 3.52 µM
COc1cc(C[C@H]2c3cc(OC)c(OC)cc3CCN2C)c(Oc2cc3c(cc2OC)-c2c(OC)c(OC)cc4c2[C@H](C3)N(C)CC4)cc1OC [Thalicarpine]	16.501	100	–	–	> 9.98	–	–	> 9.6	> 26.6	–	–	–	-100	–	–	–	–	–	–	–	EC50 (SARS-CoV-2 [1]; [21]): > 9.61 µM; CC50 (in vitro): > 15.3 µM; HEK293T 72-hour cytotoxicty Sinf Average (HEK293T [2]): -105%; HeLa-ACE2 SI (SARS-CoV-2 [3]): > 45.67; Emax (SARS-CoV-2 [3]): 96%; EC50 (SARS-CoV-2 [3]; [20]): 0.582 µM; EC50 (HeLa-ACE2 cells [5]): > 9.61 µM; EC50 (SARS-CoV-2 [6]; [25]): > 9.98 µM; Calu-3 uninfected cytotoxicity Sinf Average (Calu-3 cells [7]): -92%; HepG2 72-hour cytotoxicity Sinf Average (HepG2 [8]): -105%; HeLa-ACE2 uninfected cytotoxicity Sinf Average (HeLa-ACE2 cells [11]): -99%
COc1cc(-n2cnc3cc(-c4ccc(Cl)cc4)sc3c2=O)ccc1OCCN1CCCC1 [GW-803430]	5.656	100	–	–	> 9.98	–	100	> 7.88	18.9	–	–	–	100	–	-101	–	–	–	-100	–	EC50 (SARS-CoV-2 [1]; [21]): > 9.59 µM; CC50 (in vitro): 5.81 µM; HeLa-ACE2 SI (SARS-CoV-2 [3]): 11.16; Emax (SARS-CoV-2 [3]): 100%; EC50 (SARS-CoV-2 [3]; [20]): 1.7 µM; EC50 (HeLa-ACE2 cells [5]): > 9.59 µM; Calu-3 SI (SARS-CoV-2 [6]): 0.88; Emax (SARS-CoV-2 [6]): 100%; EC50 (SARS-CoV-2 [6]; [25]): 6.57 µM; Calu-3 uninfected cytotoxicity Sinf Average (Calu-3 cells [7]): -116%; HeLa-ACE2 uninfected cytotoxicity Sinf Average (HeLa-ACE2 cells [11]): -100%
CNC(=O)c1cc(Oc2ccc(NC(=O)Nc3ccc(Cl)c(C(F)(F)F)c3)cc2)ccn1 [Sorafenib]	–	–	–	–	> 9.36	–	100	> 8.31	> 8.65	99	> 9.61	100	100	3.34	-107	-88	100	7.15	-101	-99	EC50 (SARS-CoV-2 [1]; [21]): 3.51 µM; Emax (HeLa-ACE2 cells [12]): 100%; EC50 (SARS-CoV-2 [3]; [20]): > 5.67 µM; CC50 at 48 h [16]: 5.3 µM; EC50 (SARS-CoV-2 [6]; [25]): > 5.2 µM
COc1ccc(C[C@H](N)C(=O)N[C@H]2[C@@H](O)[C@H](n3cnc4c(N(C)C)ncnc43)O[C@@H]2CO)cc1 [Puromycin - cytotoxicity control]	–	–	0.316	0.48	> 10	2.74	101	1.55	0.658	103	> 9.62	100	-100	0.829	-101	-101	97	1.08	-101	-100	CC50 at 48 h [16, 24]: 3.95 µM
NC1(c2ccc(-c3nc4ccn5c(=O)[nH]nc5c4cc3-c3ccccc3)cc2)CCC1 [MK-2206]	–	–	> 9.39	1.1	> 9.98	> 4.9	–	> 9.59	> 22.8	100	> 9.59	99	-100	3.88	-102	-100	82	7.59	-100	-100	EC50 ratio between the standard 24 h and the TOA assay (SARS-CoV-2 [1]): > 8; HeLa-ACE2 synergy score with remdesivi [δ] (SARS-CoV-2 [19]): 2.087; CC50 at 48 h [16, 24]: 8.7 µM; SI in Calu-3 (SARS-CoV-2 [6]): < 2
